The source of these data is patent US10028992B2, “Methods of treating muscular dystrophy” (BOARD OF REGENTS OF THE NEVADA SYSTEM OF HIGHER EDUCATION …, priority 2012, dated 2018).

Each structure is given as a SMILES string.

The assay relates to α7 integrin promoter. In words: muscle cell-based assay: α7βgal+/− myoblasts/myotubes, LacZ reporter, β-galactosidase cleavage of FDG. Also noted: species or system mouse; Results in α7+/− β-galactosidase assay: scale not given here. Particulars: Myotubes; for Results in a α7+/− β-galactosidase assay, Myotubes, 0.5 uM: compound at 0.5 uM; for Results in a α7+/− β-galactosidase assay, Myotubes, 1 uM: compound at 1 uM; for Results in a α7+/− β-galactosidase assay, Myotubes, 5 uM: compound at 5 uM; for Results in a α7+/− β-galactosidase assay, Myotubes, 10 uM: compound at 10 uM; for Results in a α7+/− β-galactosidase assay, Myotubes, 20 uM: compound at 20 uM; for Results in a α7+/− β-galactosidase assay, Myotubes, 40 uM: compound at 40 uM. The method in brief:
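Primary α7βgal+/− mouse myoblasts (LacZ knocked into α7 integrin exon 1, promoter retained), differentiated; promoter activity read as β-galactosidase conversion of non-fluorescent FDG to fluorescein. Hits followed by dose-response, western analysis and myostatin counterscreen.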

Regarding `Cc1ccc2c(c1)/C(=C/c1ccco1)C(=O)N2` [drawing 488], the “Results in a α7+/− β-galactosidase assay, Myotubes, 0.5 uM” value (from here on “Results … 0.5 uM”) is given as −0.00427; the “Results in a α7+/− β-galactosidase assay, Myotubes, 1 uM” value (from here on “Results … 1 uM”) was −0.00615; the “Results in a α7+/− β-galactosidase assay, Myotubes, 5 uM” value (“Results … Myotubes, 5 uM” below) was 0.07579; the “Results in a α7+/− β-galactosidase assay, Myotubes, 10 uM” value (shortened to “Results … 10 uM”) is recorded as −0.3334. The “Results in a α7+/− β-galactosidase assay, Myotubes, 20 uM” value (from here on “Results … 20 uM”) amounted to 0.0134 and the “Results in a α7+/− β-galactosidase assay, Myotubes, 40 uM” value (“Results … 40 uM” for short) is given as −0.2855.

In the case of `O=C1CCC(C(=O)N2CCSCC2)CN1Cc1ccc(Cl)cc1` (stereo not drawn) [drawing 489], the “Results … 0.5 uM” value is listed as 0.02632; the “Results … 1 uM” value turned out to be 0.1369; the “Results … Myotubes, 5 uM” value is 0.02663; the “Results … 10 uM” value is listed as 0.3226. Further, the “Results … 20 uM” value amounted to 0.2089 and the “Results … 40 uM” value amounted to 0.5544.

In the case of `c1ccc(-c2cn3c4c(sc3n2)CCCC4)cc1` [drawing 490], the “Results … 0.5 uM” value is −0.06339; the “Results … 1 uM” value is 0.06029; the “Results … Myotubes, 5 uM” value is recorded as −0.3683; the “Results … 10 uM” value was −0.08198. Besides, the “Results … 20 uM” value is on record as −0.09547 and the “Results … 40 uM” value came out at 0.1666.

With `COc1ccccc1CC(=O)Nc1cc(S(=O)(=O)N2CCOCC2)ccc1N1CCOCC1` [drawing 491], the “Results … 0.5 uM” value turned out to be 0.003263; the “Results … 1 uM” value is 0.04702; the “Results … Myotubes, 5 uM” value is −0.2793; the “Results … 10 uM” value stood at 0.1263. Also, the “Results … 20 uM” value was −0.1143 and the “Results … 40 uM” value was found to be 0.0714.

As for `COc1ccccc1/C=C1\C(=O)Nc2ccccc21` [drawing 492], the “Results … 0.5 uM” value was −0.03334; the “Results … 1 uM” value was 0.08625; the “Results … Myotubes, 5 uM” value is listed as −0.2626; the “Results … 10 uM” value was determined as 0.09022. The “Results … 20 uM” value is −0.05273 and the “Results … 40 uM” value turned out to be 0.2894.

As to `CN1C(=O)N(CC(=O)N2CCN(S(=O)(=O)c3ccc(Cl)s3)CC2)C(=O)C12CCCCC2` [drawing 493], the “Results … 0.5 uM” value worked out at 0.02298; the “Results … 1 uM” value came to 0.1534; the “Results … Myotubes, 5 uM” value is listed as −0.342; the “Results … 10 uM” value is reported as 0.1222. Moreover, the “Results … 20 uM” value is on record as −0.2548 and the “Results … 40 uM” value is on record as −0.1971.

Turning to `Cn1cc(CN2CCC(C(=O)Nc3cccc(-c4cscn4)c3)CC2)cn1` [drawing 494], the “Results … 0.5 uM” value was −0.07662; the “Results … 1 uM” value came to 0.03293; the “Results … Myotubes, 5 uM” value is reported as −0.2802; the “Results … 10 uM” value was determined as 0.1352. Moreover, the “Results … 20 uM” value is −0.1701 and the “Results … 40 uM” value was 0.00319.

As for `O=C1Cc2ccccc2/C1=C\c1ccc([N+](=O)[O-])cc1` [drawing 495], the “Results … 0.5 uM” value was −0.06418; the “Results … 1 uM” value is reported as −0.0268; the “Results … Myotubes, 5 uM” value is given as −0.312; the “Results … 10 uM” value came to 0.004591. The “Results … 20 uM” value is reported as −0.246 and the “Results … 40 uM” value is listed as −0.2389.

Regarding `CCCC(=O)OCC(=O)c1[nH]c(C)c(C(C)=O)c1C` [drawing 496], the “Results … 0.5 uM” value is −0.1192; the “Results … 1 uM” value is given as −0.0136; the “Results … Myotubes, 5 uM” value is recorded as −0.3312; the “Results … 10 uM” value is on record as −0.02935. The “Results … 20 uM” value is recorded as −0.1657 and the “Results … 40 uM” value is −0.01124.

On to `CCO/C(C)=C1\C(=O)Nc2ccccc21` [drawing 497], for which the “Results … 0.5 uM” value is −0.1394; the “Results … 1 uM” value was found to be 0.0259; the “Results … Myotubes, 5 uM” value is −0.3175; the “Results … 10 uM” value is on record as −0.219. Also, the “Results … 20 uM” value is listed as −0.1574 and the “Results … 40 uM” value turned out to be 0.04819.

Take `COc1ccc(C(=O)Nc2ccc(Cl)cn2)cc1Cl` [drawing 498]: the “Results … 0.5 uM” value is 0.01557; the “Results … 1 uM” value was −0.1102; the “Results … Myotubes, 5 uM” value was −0.4051; the “Results … 10 uM” value was −0.6189. The “Results … 20 uM” value is −0.2285 and the “Results … 40 uM” value is reported as −0.2585.

Take `CCOc1ccccc1NC(=O)c1cccc2c1C(=O)N(C1CCCCC1)C2` [drawing 499]: the “Results … 0.5 uM” value is on record as 0.0377; the “Results … 1 uM” value was −0.1345; the “Results … Myotubes, 5 uM” value is listed as −0.3317; the “Results … 10 uM” value is on record as −0.3744. The “Results … 20 uM” value is −0.1769 and the “Results … 40 uM” value is reported as −0.1762.

Take `CCOC(=O)C1CCCN(C(=O)CNS(=O)(=O)c2ccc(Br)s2)C1` (stereo not drawn) [drawing 500]: the “Results … 0.5 uM” value is −0.02306; the “Results … 1 uM” value was 0.05901; the “Results … Myotubes, 5 uM” value is listed as −0.3059; the “Results … 10 uM” value is −0.1617. Moreover, the “Results … 20 uM” value is listed as −0.03881 and the “Results … 40 uM” value is reported as −0.02855.

For the compound `Cc1nnc(SCC(=O)c2ccc(Br)cc2)s1` [drawing 501], the “Results … 0.5 uM” value is listed as −0.07126; the “Results … 1 uM” value came out at 0.01886; the “Results … Myotubes, 5 uM” value is on record as −0.2188; the “Results … 10 uM” value is −0.3746. Further, the “Results … 20 uM” value is given as −0.08999 and the “Results … 40 uM” value is listed as 0.006174.

For `Cn1ccc(C(=O)Nc2cccnc2Cl)n1` [drawing 502], the “Results … 0.5 uM” value was 0.04794; the “Results … 1 uM” value is −0.05775; the “Results … Myotubes, 5 uM” value stood at 0.0198; the “Results … 10 uM” value turned out to be 0.06627. The “Results … 20 uM” value is −0.1124 and the “Results … 40 uM” value is on record as −0.1256.

`CCOC(=O)c1sc(=N)n(-c2ccc(OC)cc2)c1C` [drawing 503]: the “Results … 0.5 uM” value was determined as 0.01467; the “Results … 1 uM” value is given as −0.0655; the “Results … Myotubes, 5 uM” value is on record as −0.3446; the “Results … 10 uM” value was −0.2817. In addition, the “Results … 20 uM” value is listed as −0.1985 and the “Results … 40 uM” value is −0.1785.

In the case of `COc1c(Cl)cc(/C=C2\C(=O)Nc3ccccc32)cc1Cl` [drawing 504], the “Results … 0.5 uM” value was −0.04389; the “Results … 1 uM” value is listed as −0.02066; the “Results … Myotubes, 5 uM” value is listed as −0.212; the “Results … 10 uM” value is −0.2296. Also, the “Results … 20 uM” value is reported as −0.06953 and the “Results … 40 uM” value was −0.1103.

As for `COc1c(Cl)cc(/C=C2\C(=O)Nc3ccccc32)cc1Cl` [drawing 505], the “Results … 0.5 uM” value is listed as −0.1548; the “Results … 1 uM” value is −0.1313; the “Results … Myotubes, 5 uM” value is reported as −0.4088; the “Results … 10 uM” value is reported as −0.5935. Besides, the “Results … 20 uM” value is −0.3163 and the “Results … 40 uM” value was −0.3432.

For the compound `CC(=O)Oc1c(Cl)cc(/C=C2\C(=O)Nc3ccccc32)cc1Cl` [drawing 506], the “Results … 0.5 uM” value is reported as −0.05659; the “Results … 1 uM” value is −0.06941; the “Results … Myotubes, 5 uM” value is −0.2138; the “Results … 10 uM” value is recorded as −0.4615. For the same compound, the “Results … 20 uM” value was −0.2526 and the “Results … 40 uM” value is −0.403.

Consider `CCN(CC)CCNC(=O)c1c(C)[nH]c(CC2C(=O)Nc3ccc(F)cc32)c1C` (stereo not drawn) [drawing 507], for which the “Results … 0.5 uM” value is −0.07384; the “Results … 1 uM” value is on record as −0.08032; the “Results … Myotubes, 5 uM” value is −0.9266; the “Results … 10 uM” value is −1.896. Further, the “Results … 20 uM” value was −0.9097 and the “Results … 40 uM” value is listed as −0.9224.

Regarding `O=C1Nc2ccccc2/C1=C1\Nc2ccccc2C1=O` [drawing 508], the “Results in α7+/− β-galactosidase assay” value is listed as −0.08969 (0.5 uM); −0.08698 (1 uM); −0.493 (5 uM); −0.5852 (10 uM); −0.318 (20 uM); −0.3129 (40 uM).
